Test results as given in patent US20080132510A1, “Imidazolylmethyl and Pyrazolylmethyl Heteroaryl Derivatives” (priority 2005, published 2008).

Target: benzodiazepine site of the GABAA receptor
Test: Ligand binding assay (3H-Ro15-1788 displacement, purified rat cortical membranes)
Conditions: previously determined; used in the Cheng-Prusoff equation; read-out: binding dissociation constant (Kd) of the radioligand

Q: CCOC(=O)c1ncn2c1CN(C)C(=O)c1cc(F)ccc1-2 [^3H—R15-1788] was tested. Which Kd did it give?
A: 1 nM
